{
  "source": "patent US20210003556A1",
  "about": "“IMPROVING ANTI-PD-1 CANCER THERAPY” (Mayo Foundation for Medical Education and Research, priority 2018, published 2021)",
  "key": {"[1]": {"system": "Bim^+ CD8^+ T cells", "experiment": "% Bim+ CD8+ T cells in peripheral blood of metastatic melanoma patients after PD-1 ICI therapy", "assay_type": "in vivo, human", "details": "12 weeks after anti-PD-1 therapy; responders vs non-responders, first cohort", "description": "FIGS. 15A to 15D illustrate changes in Bim^+ CD8^+ T cells in response to PD-1 ICI therapy in patients with MM. FIG. 15A is a graph plotting percentages of changes in the frequency (%) of Bim^+ CD8^+ T cells in MM patients with progressive diseases (P, n=7) and responders (R, n=6) at 12-weeks after PD-1 therapy. **P<0.01, error bars, median with interquartile ranges. FIG. 15B is a series of images of metastatic melanoma (white arrows) in one patient with pseudo-progression at 12 weeks after PD-1 therapy. FIG. 15C is a graph plotting % Bim^+ CD8^+ T cells of the patient of FIG. 15B at baseline, 12 weeks, and 16 weeks after PD-1 therapy. FIG. 15D is a graph plotting the % change of Bim^+ CD8^+ T cells in a second cohort of melanoma patients (total 38) at 12 weeks after PD-1 therapy.\nFurther studies were conducted to examine and compare the frequency of Bim^+ cells among circulating CD11a^high CD8^+ T cells, since this population of T cells is enriched with tumor-reactive T cells (Liu et al., Oncoimmunology, 2013, 2:e23972). […] In addition, Bim levels (MFI) were positively correlated with PD-1 levels among CD11a^high CD8^+ T cells of cancer patients (FIG. 14B, P<0.01; Duraiswamy et al., J Immunol, 2011, 186:4200-4212). […] Therefore, measurement of the frequency of Bim^+ CD8^+ T cells can be used to the degree to which PD-1 signals have been blocked in cancer patients. […]"}, "[2]": {"system": "metastatic melanoma", "experiment": "Salvage chemotherapy added to anti-PD-1 in metastatic melanoma patients who failed PD-1 blockade", "assay_type": "in vivo, human", "details": "BRAF wild-type metastatic melanoma; pembrolizumab alone, then carboplatin and paclitaxel added, assessed three weeks after the combination", "experimental": "FIGS. 2A to 2C show patient responses to CIT with an increase of CX3CR1^+ Granzyme B^+ CD8^+ T cells. […] Given the disease progression while on pembrolizumab, paclitaxel, and carboplatin (white arrows) were initiated at 175 mg/m^2 and an AUC (area under curve) of 5 every 3 weeks for 2 cycles in combination with pembrolizumab. The patient received total of 12 cycles of pembrolizumab at the end of the follow up. FIG. 2B is a pair of flow cytometry plots showing CX3CR1 levels pre- and post-chemo, as indicated. Following the same schedule of treatment as in FIG. 2A, blood samples were collected for flow analysis of CX3CR1^+ Granzyme B^+ among CD11a^highCD8^+ T cells. […]\nPatient information: The studies described herein were conducted according to Declaration of Helsinki principles. […] Response to treatment was evaluated according to standard clinical practice guidelines using Response Evaluation Criteria In Solid Tumors (RECIST) criteria. […]\nThe frequency of CX3CR1^+ Granzyme B^+ CD8^+ tumor-reactive T cells was examined before and after chemotherapy combined with anti-PD-1 therapy in patients with metastatic melanoma. […] The frequency of CX3CR1^+ Granzyme B^+ cells also was measured and compared in other responders and non-responders prior to and after chemotherapy. […]"}, "[3]": {"system": "CX3CR1^+ CD8^+ T cells", "experiment": "CTL function (CD107a expression, IFN-γ production) of CD8+ T cells with ABCB1 inhibitor with or without CP", "assay_type": "cell-based, human", "details": "anti-CD3/CD28 beads 24 hours", "experimental": "(§1) Stimulation and culture of human T cells: Human CD8^+ T cells were purified using a human CD8^+ T cell enrichment kit (Stemcell). CD8^+ T cells were incubated with chemotherapy drugs (paclitaxel, carboplatin, or doxorubicin), either alone or with T cell activators (DYNABEADS®, human T-activator CD3/CD28 beads) for 24-48 hours, followed with staining for CX3CR1 and Granzyme B. ABCB1 inhibitor PGP4008 was purchased from Enzo Life Sciences (Farmingdale, N.Y.).\nSince the pharmacodynamics of doxorubicin may not be able to exactly reflect the efflux of carboplatin and paclitaxel (CP), and these drugs cannot be directly tracked due to lack of fluorescent capability, the impact of the drug transporter inhibitor on the function of T cells in the presence of CP was examined to determine whether T cell function might be dampened due to the reduced ability of T cells to efflux CP. ABCB1 transporter inhibitor (PGP4008) was incubated with resting or activated human primary CD8^+ T cells in vitro in the presence of CP. T cell function was measured by based pm degranulation (CD107a expression) and intracellular IFN-γ production."}, "[4]": {"system": "CX3CR1^+ CD8^+ T cells", "assay_type": "cell-based, human", "experimental": "FIG. 7 is a graph plotting CX3CR1^+ CD8^+ and CX3CR1^− CD8^+ T cell survival during treatment with doxorubicin (Dox) in vitro. […] N=4 donors.\nas §1\nTo determine the effect of chemotherapeutic treatment on survival of CX3CR1^+ and CX3CR1^− CD8^+ T cells, subsets of these cells were isolated, placed in 96 well plates at 2×10^5 cells/well, and incubated with doxorubicin (Dox) at 0.5 μg/ml for 40 hours."}, "[5]": {"system": "CX3CR1^+ CD8^+ T cells", "experiment": "IL-15 treatment of human PBMC in vitro (proliferation/expansion of CX3CR1+ CD8+ T cells)", "assay_type": "cell-based", "experimental": "FIG. 8A is a flow cytometry plot showing representative CD122 expression by CX3CR1^+ CD8^+ T cells. FIG. 8B is a graph plotting CD122 expression by CX3CR1^+ and CX3CR1^− CD8^+ T cells in PBMC after incubation with PHA-L for 48 hours. […] FIG. 8C is a graph plotting proliferation of CX3CR1^+ CD8^+ T cells treated in vitro with human IL-15 for 48 hours.\nFIG. 9 is a graph plotting % CX3CR1^+ Granzyme CD8^+ T cells among human peripheral blood mononuclear cells (PBMC) cultured with graded concentrations of rh-IL-15 for 24 hours in vitro.\nFor at least a couple of reasons, IL-15 may improve anti-PD-1 therapy for non-responsive tumors. First, the transcription of CD122 (IL-2 receptor beta) was increased in CD11a^high CD8^+ T cells in responders 25 compared to non-responders (FIG. 1B). […] Further, human PBMC were incubated with human IL-15 (10 ng/ml) or anti-CD3/CD28 beads for 48 hours, and proliferation of CX3CR1^+ CD8^+ T cells was assessed based on % Ki67^+ cells.\nTo test whether IL-15 directly contributes to the expansion of CX3CR1^+ Granzyme B^+ CD8^+ T cells, human recombinant IL-15 was incubated for 24 hours with PBMC isolated from healthy human donors, followed by flow cytometry analysis of CX3CR1^+ Granzyme B^+ CD8^+ T cells. […] Thus, IL-15 may improve the efficacy of PD-1 ICI therapy by expanding CX3CR1^+ Granzyme B^+ CD8^+ T cells that are capable of rejecting tumors."}},
  "data": [
    {"compound": "pembrolizumab: anti-PD-1 antibody", "values": [
      {"measurement": "% Bim+ CD8+ T cells", "setting": "[1]", "result": "significantly decreased in responders compared to non-responders"},
      {"measurement": "disease status (PET/CT) in one patient", "setting": "[2]", "result": "rapid progression of metastatic melanoma in the peritoneum and liver"}
    ]},
    {"compound": "O=C(Cc1ccccc1)Nc1c2c(nc3ccccc13)N(Cc1ccccc1)CC2", "note": "[PGP4008]", "values": [
      {"measurement": "function of CX3CR1+ CD8+ T cells (CD107a expression, IFN-γ production)", "setting": "[3]; in the absence of CP", "result": "not in the absence of CP"},
      {"measurement": "function of CX3CR1+ CD8+ T cells (CD107a expression, IFN-γ production)", "setting": "[3]; in the presence of CP (carboplatin and paclitaxel)", "result": "significantly inhibited the function"},
      {"measurement": "apoptosis of CX3CR1+ CD8+ T cells after addition of ABCB1 inhibitor", "setting": "[4]; cultured with Doxorubicin 0.5 μg/ml for 40 hours plus PGP4008", "result": "increased apoptosis"}
    ]},
    {"compound": "COc1cccc2c1C(=O)c1c(O)c3c(c(O)c1C2=O)C[C@@](O)(C(=O)CO)C[C@@H]3O[C@H]1C[C@H](N)[C@H](O)[C@H](C)O1", "note": "[doxorubicin]", "values": [
      {"measurement": "apoptosis (Annexin V) of CD8+ T cells", "setting": "[4]; human, 40 h, 0.5 μg/ml", "result": "fewer CX3CR1^+ CD8^+ T cells (efflux cells) than CX3CR1^− CD8^+ T cells (non-efflux cells) underwent apoptosis"},
      {"measurement": "percentage of Dox+/annexin V low (live) cells", "setting": "[4]; human, 40 h, 0.5 μg/ml", "result": "higher in the CX3CR1^+ subset of CD8^+ T cells than in the CX3CR1^− CD8^+ subset"}
    ]},
    {"compound": "human IL-15: human recombinant interleukin-15", "values": [
      {"measurement": "expansion of CX3CR1+ Granzyme B+ CD8+ T cells among PBMC", "setting": "[5]; graded concentrations of rh-IL-15, 24 hours, healthy human donors", "result": "significantly increased the expansion"},
      {"measurement": "proliferation of CX3CR1+ CD8+ T cells (% Ki67+ cells)", "setting": "[5]; human PBMC, human IL-15 10 ng/ml, 48 hours", "result": "increased proliferation"}
    ]}
  ]
}
